From the NIST ThermoML archive (doi:10.1016/j.jct.2008.01.024)
± gives the expanded uncertainty stated by the source.

What was measured:
[1] = excess molar enthalpy (molar enthalpy of mixing); xn = mol fraction of the nth substance listed; settings: 101 kPa, Liquid, Flow calorimetry
[2] = Liquid; for mass density: 298.15 K, 101.33 kPa; for vapor or sublimation pressure: Ebulliometric method (Recirculating still)

CCCCCl [1-chlorobutane] + CN1CCCC1=O
[1]
Settings	excess molar enthalpy [kcal/mol]
298.15 K, x2 = 0.063	0.00454 ± 0.000956
298.15 K, x2 = 0.113	0.0098 ± 0.000956
298.15 K, x2 = 0.213	0.0194 ± 0.000956
298.15 K, x2 = 0.312	0.027 ± 0.000956
298.15 K, x2 = 0.411	0.0327 ± 0.000956
298.15 K, x2 = 0.51	0.0363 ± 0.000956
298.15 K, x2 = 0.608	0.037 ± 0.000956
298.15 K, x2 = 0.706	0.0347 ± 0.000956
298.15 K, x2 = 0.804	0.0284 ± 0.000956
298.15 K, x2 = 0.901	0.0167 ± 0.000956
298.15 K, x2 = 0.949	0.00908 ± 0.000956
308.15 K, x2 = 0.06	0.00813 ± 0.000956
308.15 K, x2 = 0.11	0.0153 ± 0.000956
308.15 K, x2 = 0.208	0.0275 ± 0.000956
308.15 K, x2 = 0.307	0.0363 ± 0.000956
308.15 K, x2 = 0.406	0.0421 ± 0.0012
308.15 K, x2 = 0.504	0.0457 ± 0.0012
308.15 K, x2 = 0.603	0.0457 ± 0.0012
308.15 K, x2 = 0.701	0.0421 ± 0.0012
308.15 K, x2 = 0.799	0.0339 ± 0.000956
308.15 K, x2 = 0.897	0.0198 ± 0.000956
308.15 K, x2 = 0.946	0.011 ± 0.000956
308.15 K, x2 = 0.965	0.00598 ± 0.0012

CCCCCCCCCl [1-chlorooctane] + CN1CCCC1=O
[1]
Settings	excess molar enthalpy [kcal/mol]
298.15 K, x2 = 0.073	0.0229 ± 0.00143
298.15 K, x2 = 0.121	0.0473 ± 0.00143
298.15 K, x2 = 0.217	0.0887 ± 0.00143
298.15 K, x2 = 0.314	0.12 ± 0.00143
298.15 K, x2 = 0.411	0.141 ± 0.00143
298.15 K, x2 = 0.507	0.152 ± 0.00167
298.15 K, x2 = 0.604	0.154 ± 0.00167
298.15 K, x2 = 0.701	0.143 ± 0.00167
298.15 K, x2 = 0.798	0.12 ± 0.00167
298.15 K, x2 = 0.895	0.076 ± 0.00167
298.15 K, x2 = 0.943	0.0423 ± 0.00167
308.15 K, x2 = 0.068	0.0268 ± 0.00143
308.15 K, x2 = 0.116	0.0533 ± 0.00143
308.15 K, x2 = 0.213	0.098 ± 0.00143
308.15 K, x2 = 0.309	0.132 ± 0.00167
308.15 K, x2 = 0.406	0.155 ± 0.00167
308.15 K, x2 = 0.504	0.167 ± 0.00167
308.15 K, x2 = 0.602	0.1678 ± 0.00167
308.15 K, x2 = 0.7	0.156 ± 0.00167
308.15 K, x2 = 0.799	0.129 ± 0.00167
308.15 K, x2 = 0.898	0.081 ± 0.00167
308.15 K, x2 = 0.948	0.0449 ± 0.00191
308.15 K, x2 = 0.968	0.0263 ± 0.00215

CCCCCCCCCl [1-chlorooctane]
Settings	mass density [kg/m3]
[2]	868.98 ± 1.6

ClCCCCCCCl [1,6-dichlorohexane]
Settings	mass density [kg/m3]
[2]	1063.7 ± 2

ClCCCCCl [1,4-dichlorobutane] + CN1CCCC1=O
[1]
Settings	excess molar enthalpy [kcal/mol]
298.15 K, x2 = 0.064	-0.0301 ± 0.00143
298.15 K, x2 = 0.113	-0.0535 ± 0.00143
298.15 K, x2 = 0.21	-0.097 ± 0.00143
298.15 K, x2 = 0.308	-0.131 ± 0.00167
298.15 K, x2 = 0.406	-0.152 ± 0.00167
298.15 K, x2 = 0.505	-0.162 ± 0.00167
298.15 K, x2 = 0.604	-0.158 ± 0.00167
298.15 K, x2 = 0.703	-0.139 ± 0.00167
298.15 K, x2 = 0.803	-0.107 ± 0.00167
298.15 K, x2 = 0.903	-0.0605 ± 0.00143
298.15 K, x2 = 0.954	-0.032 ± 0.00143
308.15 K, x2 = 0.06	-0.028 ± 0.00143
308.15 K, x2 = 0.109	-0.0523 ± 0.00143
308.15 K, x2 = 0.207	-0.0942 ± 0.00143
308.15 K, x2 = 0.305	-0.125 ± 0.00143
308.15 K, x2 = 0.403	-0.147 ± 0.00167
308.15 K, x2 = 0.501	-0.156 ± 0.00167
308.15 K, x2 = 0.599	-0.152 ± 0.00167
308.15 K, x2 = 0.698	-0.135 ± 0.00167
308.15 K, x2 = 0.797	-0.103 ± 0.00143
308.15 K, x2 = 0.895	-0.0586 ± 0.00143
308.15 K, x2 = 0.945	-0.0294 ± 0.00143
308.15 K, x2 = 0.964	-0.0189 ± 0.00143

CCCCCCCl [1-chlorohexane] + CN1CCCC1=O
excess molar enthalpy [kcal/mol], [1]
Settings	298.15 K	308.15 K
x2 = 0.062	–	0.0165 ± 0.0012
x2 = 0.064	0.0127 ± 0.0012	–
x2 = 0.111	–	0.0349 ± 0.0012
x2 = 0.113	0.0287 ± 0.0012	–
x2 = 0.208	–	0.0652 ± 0.0012
x2 = 0.21	0.0554 ± 0.0012	–
x2 = 0.306	–	0.0891 ± 0.00143
x2 = 0.308	0.0774 ± 0.0012	–
x2 = 0.404	–	0.104 ± 0.00143
x2 = 0.406	0.0913 ± 0.0012	–
x2 = 0.502	–	0.112 ± 0.00143
x2 = 0.503	0.0994 ± 0.0012	–
x2 = 0.601	0.1 ± 0.0012	0.112 ± 0.00143
x2 = 0.699	0.093 ± 0.0012	0.103 ± 0.00143
x2 = 0.797	0.0762 ± 0.0012	–
x2 = 0.798	–	0.0841 ± 0.00143
x2 = 0.895	0.0466 ± 0.0012	–
x2 = 0.897	–	0.0507 ± 0.00143
x2 = 0.944	0.0265 ± 0.00143	–
x2 = 0.947	–	0.027 ± 0.00143
x2 = 0.967	–	0.0174 ± 0.00143

CN1CCCC1=O [N-methylpyrrolidone]
Settings	mass density [kg/m3]
[2]	1028.55 ± 0.6

ClCCCl [1,2-dichloroethane]
Settings	mass density [kg/m3]
[2]	1245.6 ± 0.76

Settings	vapor or sublimation pressure [kPa]
[2], 313.15 K	20.75 ± 0.025

ClCCCl [1,2-dichloroethane] + CN1CCCC1=O
excess molar enthalpy [kcal/mol], [1]
Settings	298.15 K	308.15 K
x2 = 0.057	-0.0545 ± 0.00263	–
x2 = 0.058	–	-0.0578 ± 0.00263
x2 = 0.105	-0.111 ± 0.00239	–
x2 = 0.107	–	-0.113 ± 0.00239
x2 = 0.203	-0.198 ± 0.00239	–
x2 = 0.207	–	-0.202 ± 0.00239
x2 = 0.301	-0.2624 ± 0.00239	–
x2 = 0.307	–	-0.266 ± 0.00239
x2 = 0.4	-0.2949 ± 0.00239	–
x2 = 0.407	–	-0.2985 ± 0.00263
x2 = 0.5	-0.3021 ± 0.00263	–
x2 = 0.507	–	-0.3043 ± 0.00263
x2 = 0.601	-0.2825 ± 0.00239	–
x2 = 0.607	–	-0.2837 ± 0.00239
x2 = 0.702	-0.238 ± 0.00239	–
x2 = 0.708	–	-0.238 ± 0.00239
x2 = 0.805	-0.175 ± 0.00215	–
x2 = 0.808	–	-0.174 ± 0.00215
x2 = 0.909	-0.0935 ± 0.00215	-0.0927 ± 0.00215
x2 = 0.95	–	-0.0523 ± 0.00215
x2 = 0.961	-0.0433 ± 0.00215	–
x2 = 0.97	–	-0.0344 ± 0.00215

CCCCCl [1-chlorobutane]
Settings	mass density [kg/m3]
[2]	880.72 ± 0.21

Settings	vapor or sublimation pressure [kPa]
[2], 313.15 K	25.72 ± 0.028

ClCCCCCl [1,4-dichlorobutane]
Settings	mass density [kg/m3]
[2]	1133.63 ± 4.8

Settings	vapor or sublimation pressure [kPa]
[2], 323.15 K	2.205 ± 0.011

CCCCCCCl [1-chlorohexane]
Settings	mass density [kg/m3]
[2]	873.21 ± 0.83

Settings	vapor or sublimation pressure [kPa]
[2], 313.15 K	2.857 ± 0.009

ClCCCCCCCl [1,6-dichlorohexane] + CN1CCCC1=O
excess molar enthalpy [kcal/mol], [1]
Settings	298.15 K	308.15 K
x2 = 0.041	–	-0.0055 ± 0.000956
x2 = 0.06	–	-0.00789 ± 0.000956
x2 = 0.068	-0.0108 ± 0.000956	–
x2 = 0.109	–	-0.0148 ± 0.000956
x2 = 0.116	-0.0191 ± 0.000956	–
x2 = 0.207	–	-0.0244 ± 0.000956
x2 = 0.212	-0.0311 ± 0.000956	–
x2 = 0.305	–	-0.0325 ± 0.000956
x2 = 0.309	-0.0404 ± 0.0012	–
x2 = 0.403	–	-0.037 ± 0.000956
x2 = 0.405	-0.0457 ± 0.0012	–
x2 = 0.502	–	-0.0387 ± 0.000956
x2 = 0.503	-0.0478 ± 0.0012	–
x2 = 0.6	-0.0457 ± 0.0012	-0.0363 ± 0.000956
x2 = 0.699	-0.0394 ± 0.0012	-0.032 ± 0.000956
x2 = 0.797	-0.0294 ± 0.000956	–
x2 = 0.799	–	-0.0241 ± 0.000956
x2 = 0.896	-0.0155 ± 0.000956	–
x2 = 0.898	–	-0.0127 ± 0.000956
x2 = 0.946	-0.00765 ± 0.000956	–
x2 = 0.948	–	-0.00598 ± 0.000956
x2 = 0.968	–	-0.00335 ± 0.000956
